Results on 9 compounds are retold here after patent US12441757B2, “Platform for screening NAD+ binding proteins in a cellular context” (OREGON HEALTH & SCIENCE UNIVERSITY, priority 2020, dated 2025).

Entries after “also recorded” stand apart in the source; their conditions may differ.

The target in experiment [1] is T1, PARP-1 (Homo sapiens, UniProt P09874).
T1 construct: Full length His6-PARP-1 and His6-SUMO-PARP-10 proteins we expressed and purified; His6 (N); made in house
As to the kind of experiment: Competition labeling of PARP-1 by 2-ad-BAD. The format is binding. The following applies: for block of 2-ad-BAD labeling of PARP-1 by nucleotides: 150 μM nucleotide, 0.3 μM 2-ad-BAD; for dose-dependent block of 2-ad-BAD labeling of PARP-1: competitor dose series. An excerpt:
(§1) FIG. 8. Densitometry analyses of FIG. 3A panels (A,B) comparing the inhibitory effect of nucleotides and (B) panels (C,D) comparing inhibitory effect of PARP inhibitors on PARP-1 and PARP-10 labelling by 2-ad-BAD. TAMRA in-gel fluorescence was normalized to Coomassie staining, except for PARP-1 NAD^+ treated samples where relative to control TAMRA signal is reported due to auto-PARylation induced molecular weight shift and therefore not detectable Coomassie signal at PARP-1 molecular weight of ˜110 kDa. Data are mean±SEM of 3 independent experiments.
(§2) Treatments. Recombinant PARP-1 (250 nM), PARP-10 (250 nM) or AK1 (500 nM; Novus Biologicals) were diluted in 100 mM NaCl, 50 mM HEPES [pH 7.4], 4 mM MgCl2, 0.2 mM TCEP. PARP-1 reactions also contained 10 μg/mL of activated calf thymus DNA (Sigma-Aldrich D4522), unless otherwise noted. In experiments reported in FIG. 2, the samples were treated with 0.1 μM 2-ad-BAD or ad-olaparib for 10 min. In competition experiments reported in FIG. 3 and Figure S3, samples were first treated with 150 μM of indicated nucleotides for 10 minute and then with 0.3 μM 2-ad-BAD for additional 10 min. All treatments occurred at RT. Samples were then kept in the dark or irradiated for 5 min in the RPR-100 Photochemical Reactor (Rayonet) equipped with 350 nm lamps at 4° C.
(§3) Click Chemistry. 25 μL of each sample was mixed with 5 μL of fatty acid free BSA and SDS to give a final Click reaction concentration of 1 mg/mL and 1%, respectively. Click reactions were started by adding 15 μL of PBS based 3× click reaction mix (final 1× concentrations shown): 100 μM Tris[(1-benzyl-1H-1,2,3triazol-4-yl)methyl]amine (TBTA, Click Chemistry Tools), 1 mM CuSO4, 40 μM tetramethylrhodamine (TAMRA)-azide (Click Chemistry Tools), 1 mM Tris(2-carboxyethyl)phosphine hydrochloride (TCEP, Thermo Fisher) and 5% tert-Butyl alcohol to each sample, and let to proceed for 1 h at RT while gently shaking. Reactions were stopped by adding 4× Laemmli sample buffer and boiling at 95° C. for 5 min.
(§4) In gel fluorescence and staining. Samples were loaded to 10 or 12% SDS-polyacrylamide gels and run until the dye front left the gel. In-gel fluorescence was detected with ChemiDoc XRS+ (Biorad) using Rhodamine filter and then the gels were stained with Coomassie blue or Silver using standard protocols.

For a further experiment, the target named is T2, PARP-10 (Homo sapiens, UniProt Q53GL7).
T2 construct: Full length His6-PARP-1 and His6-SUMO-PARP-10 proteins we expressed and purified; His6 (N); SUMO (N); made in house
T2 sequence (Q53GL7 1-1025): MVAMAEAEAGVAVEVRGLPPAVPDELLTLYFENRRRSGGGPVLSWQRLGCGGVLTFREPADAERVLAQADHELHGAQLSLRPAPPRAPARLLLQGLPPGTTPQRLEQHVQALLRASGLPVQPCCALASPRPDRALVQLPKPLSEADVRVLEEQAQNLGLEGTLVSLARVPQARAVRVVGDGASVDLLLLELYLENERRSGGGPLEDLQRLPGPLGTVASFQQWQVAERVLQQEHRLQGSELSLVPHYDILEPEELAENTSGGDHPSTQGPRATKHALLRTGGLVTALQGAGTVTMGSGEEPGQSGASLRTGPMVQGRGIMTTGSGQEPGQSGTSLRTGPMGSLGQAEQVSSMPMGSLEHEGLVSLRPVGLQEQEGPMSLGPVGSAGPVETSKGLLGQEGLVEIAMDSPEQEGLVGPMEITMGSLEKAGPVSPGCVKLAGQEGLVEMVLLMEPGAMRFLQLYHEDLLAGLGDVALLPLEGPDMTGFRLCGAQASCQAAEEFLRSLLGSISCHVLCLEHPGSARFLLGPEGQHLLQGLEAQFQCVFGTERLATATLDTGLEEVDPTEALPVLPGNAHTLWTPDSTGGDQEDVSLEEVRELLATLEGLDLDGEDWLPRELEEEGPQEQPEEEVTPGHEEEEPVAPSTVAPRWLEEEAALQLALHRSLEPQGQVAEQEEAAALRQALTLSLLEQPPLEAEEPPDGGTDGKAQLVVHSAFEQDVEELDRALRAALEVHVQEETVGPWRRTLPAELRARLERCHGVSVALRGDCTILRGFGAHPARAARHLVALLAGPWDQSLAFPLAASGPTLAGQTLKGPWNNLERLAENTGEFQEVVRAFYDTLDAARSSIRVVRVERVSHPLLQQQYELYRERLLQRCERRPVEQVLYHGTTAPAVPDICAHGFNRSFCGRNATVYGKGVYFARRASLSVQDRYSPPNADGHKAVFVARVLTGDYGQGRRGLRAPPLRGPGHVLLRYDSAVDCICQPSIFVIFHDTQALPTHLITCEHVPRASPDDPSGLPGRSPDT
As to the kind of experiment: Competition labeling of PARP-10 by 2-ad-BAD. Type of experiment: binding. The conditions noted are these: for block of 2-ad-BAD labeling of PARP-10 by nucleotides: 150 μM nucleotide, 0.3 μM 2-ad-BAD; for dose-dependent block of 2-ad-BAD labeling of PARP-10: competitor dose series.
Excerpt: as §1, §2, §3, §4

Another experiment deals with T3, Adenylate kinase 1 (AK1) (Homo sapiens, UniProt P00568).
T3 construct: purchased Novus Biologicals NBP1-50855
T3 sequence (P00568 1-194): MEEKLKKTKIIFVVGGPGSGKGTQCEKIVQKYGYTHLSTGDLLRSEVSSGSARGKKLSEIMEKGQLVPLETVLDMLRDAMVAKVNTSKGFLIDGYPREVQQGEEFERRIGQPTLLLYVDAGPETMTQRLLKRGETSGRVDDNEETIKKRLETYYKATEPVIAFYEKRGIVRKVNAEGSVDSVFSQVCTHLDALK
Put plainly: Labeling of recombinant AK1 by 2-ad-BAD and nucleotide competition. The format is binding. The conditions noted are these: 150 μM competitor, 0.3 μM 2-ad-BAD. Here is the method:
(§5) FIG. 10. Validation of Adenylate kinase 1 (AK1) as a putative NAD^+/NADH binding protein. […] Recombinant AK1 (500 nM) in 100 mM NaCl, 50 mM HEPES [pH 7.4], 4 mM MgCl2, 0.2 mM TCEP was incubated with 150 μM of indicated competitor molecule for 10 min, followed by 10 min treatment with 0.3 μM 2-ad-BAD. Samples were then subjected to UV light for 5 min, conjugated to TAMRA using Click chemistry, separated by SDS-PAGE and in-gel fluorescence was recorded. […] (FIG. 10B) A differential scanning fluorimetry assay is supportive of NADH as novel AK1 ligand. Recombinant AK1 (0.1 mg/mL) in 100 mM NaCl, 50 mM HEPES, pH 7.4, 4 mM MgCl2, 7.5× SYPRO Orange was tested for thermal stability in the absence or presence of indicated nucleotides at 1 mM. Ordinate reports on the difference of melt peak temperature prompted by indicated treatments. Data are mean±SEM of 3 independent experiments.
as §2, §3, §4

Experiment [2] relates to AK1. The conditions noted are these: cited from earlier work.
A further experiment has as its system squid AK. The following applies: cited from earlier work.
For experiment [3], the target named is T4, AK1 (Homo sapiens, UniProt P00568).
T4 construct: purchased Novus Biologicals NBP1-50855
T4 sequence (P00568 1-194): T3 sequence (P00568 1-194)
Put plainly: Differential scanning fluorimetry (DSF) of AK1. Type of experiment: binding. The conditions noted are these: nucleotide 1 mM, AK1 0.1 mg/mL. As to the method:
as §5
Differential scanning fluorimetry was used to detect the AK1-ligand interaction. […] AK1 thermal stability upon treatment with ddH2O, ATP, ADP, NAD^+or NADH, 1 mM each, was measured on Biorad RT-PCR thermocycler using Cal Orange 560 filter. […] The melting temperature (Tm) for each sample was determined by calculating first derivative of the fluorescence (d(RFU)/dT) and shift in thermal stability (ΔTm) was calculated by subtracting vehicle—treated sample Tm from ligand-treated sample Tm.

Experiment [4] has as its target T1, PARP-1. Put plainly: In vitro photocrosslinking and click chemistry labeling of PARP-1 (in-gel fluorescence). The format is binding. The conditions noted are these: 0.1 μM probe, UV 350 nm 5 min, presence or absence of damaged DNA. As to the method: as §2
Click Chemistry. 25 μL of each sample was mixed with 5 μL of fatty acid free BSA and SDS to give a final Click reaction concentration of 1 mg/mL and 1%, respectively. […]
In gel fluorescence and staining. […] In-gel fluorescence was detected with ChemiDoc XRS+ (Biorad) using Rhodamine filter and then the gels were stained with Coomassie blue or Silver using standard protocols.

T1 sequence (P09874 whole entry): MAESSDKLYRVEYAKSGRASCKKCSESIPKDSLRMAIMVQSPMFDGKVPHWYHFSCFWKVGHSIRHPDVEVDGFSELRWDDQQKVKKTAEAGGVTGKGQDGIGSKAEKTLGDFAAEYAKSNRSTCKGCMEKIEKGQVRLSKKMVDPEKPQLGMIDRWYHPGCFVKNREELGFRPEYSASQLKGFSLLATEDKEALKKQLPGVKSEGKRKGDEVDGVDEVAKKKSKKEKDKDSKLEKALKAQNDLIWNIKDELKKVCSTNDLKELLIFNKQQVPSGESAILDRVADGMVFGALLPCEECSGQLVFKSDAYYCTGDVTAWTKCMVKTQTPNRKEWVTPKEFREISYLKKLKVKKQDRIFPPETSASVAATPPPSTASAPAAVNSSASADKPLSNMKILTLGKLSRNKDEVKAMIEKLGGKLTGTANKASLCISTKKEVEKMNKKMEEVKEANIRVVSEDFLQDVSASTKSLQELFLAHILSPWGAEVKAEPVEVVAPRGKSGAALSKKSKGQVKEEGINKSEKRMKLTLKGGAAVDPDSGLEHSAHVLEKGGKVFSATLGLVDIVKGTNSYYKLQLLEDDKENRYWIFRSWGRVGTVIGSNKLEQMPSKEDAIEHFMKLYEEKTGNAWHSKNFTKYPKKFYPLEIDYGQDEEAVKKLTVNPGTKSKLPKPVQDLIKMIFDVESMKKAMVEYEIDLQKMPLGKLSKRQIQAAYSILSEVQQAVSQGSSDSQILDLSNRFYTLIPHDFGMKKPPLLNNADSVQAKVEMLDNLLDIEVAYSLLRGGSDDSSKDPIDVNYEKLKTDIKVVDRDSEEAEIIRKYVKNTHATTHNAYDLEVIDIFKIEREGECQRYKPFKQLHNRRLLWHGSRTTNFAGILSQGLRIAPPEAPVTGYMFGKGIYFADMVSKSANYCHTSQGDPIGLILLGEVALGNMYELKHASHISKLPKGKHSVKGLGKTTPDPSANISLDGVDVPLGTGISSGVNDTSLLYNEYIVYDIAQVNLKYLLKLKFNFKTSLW

Consider `Nc1ncnc2c1ncn2[C@@H]1O[C@H](COP(=O)(O)OP(=O)(O)O)[C@@H](O)[C@H]1O` [ADP], for which the “block of 2-ad-BAD labeling of PARP-1 by nucleotides” value (“block … of PARP-1 by nucleotides” for short) at PARP-1 [1] is “did not block”. Besides, at PARP-10, the “block of 2-ad-BAD labeling of PARP-10 by nucleotides” value (shortened to “block … of PARP-10 by nucleotides”) was “did not block”.
As to `Nc1ncnc2c1ncn2[C@@H]1O[C@H](COP(=O)(O)OP(=O)(O)OC[C@H]2OC(O)[C@H](O)[C@@H]2O)[C@@H](O)[C@H]1O` (stereo partly shown) [ADPr, ADP-ribose], the “block … of PARP-1 by nucleotides” value at PARP-1 [1] is on record as “did not block”. On PARP-10, the “block … of PARP-10 by nucleotides” value is on record as “did not block”. Also, at Adenylate kinase 1 (AK1), the “competition of 2-ad-BAD labeling of recombinant AK1” value (“competition” for short) is reported as “to a lesser extent”.
Consider `Nc1ncnc2c1ncn2[C@@H]1O[C@H](COP(=O)(O)O)[C@@H](O)[C@H]1O` [AMP], for which, at Adenylate kinase 1 (AK1), the “competition” value is listed as “effectively competed”.
Take `Nc1ncnc2c1ncn2[C@@H]1O[C@H](COP(=O)(O)OP(=O)(O)OP(=O)(O)O)[C@@H](O)[C@H]1O` [ATP, adenosine triphosphate]: the “block … of PARP-1 by nucleotides” value at PARP-1 [1] was “did not block”. For the same compound, the “block … of PARP-10 by nucleotides” value on PARP-10 is listed as “did not block”. Besides, the “competition” value at Adenylate kinase 1 (AK1) is on record as “effectively competed”.
Consider `CC#Cc1ccc2c(=O)[nH]c(CSc3ccc(C(=O)O)cc3)nc2c1C` [ITK6], for which the “dose-dependent block of 2-ad-BAD labeling of PARP-1” value at PARP-1 [1] was “did not block the labeling of PARP-1”. Besides, at PARP-10, the “dose-dependent block of 2-ad-BAD labeling of PARP-10” value was “blocked the labeling of PARP-10”.
In the case of `NC(=O)C1=CN([C@@H]2O[C@H](COP(=O)(O)OP(=O)(O)OC[C@H]3O[C@@H](n4cnc5c(N)ncnc54)[C@H](O)[C@@H]3O)[C@@H](O)[C@H]2O)C=CC1` [NADH], the “block … of PARP-1 by nucleotides” value at PARP-1 [1] is on record as “reduced”. Besides, the “inhibition of AK1 activity” value in the experiment on AK1 [2] is reported as “competitively inhibited”. Also, the “block … of PARP-10 by nucleotides” value at PARP-10 was “reduced”. In addition, the “competition” value on Adenylate kinase 1 (AK1) was “effectively competed”. Moreover, in the experiment with squid AK, the “mode of inhibition of squid AK” value is “non-competitive inhibitor”. Also, the “shift in AK1 thermal stabilization (ΔTm) compared to vehicle control” value at AK1 [3] was “caused a shift in AK1 thermal stabilization; also recorded: showed a thermal shift similar to ATP and ADP”.
For `NC(=O)c1ccc[n+]([C@@H]2O[C@H](COP(=O)([O-])OP(=O)(O)OC[C@H]3O[C@@H](n4cnc5c(N)ncnc54)[C@H](O)[C@@H]3O)[C@@H](O)[C@H]2O)c1` [NAD^+, Nicotinamide adenine dinucleotide], the “block … of PARP-1 by nucleotides” value on PARP-1 [1] is reported as “reduced”. Further, the “inhibition of AK1 activity” value in the experiment with AK1 [2] is given as “competitively inhibited”. Also, the “block … of PARP-10 by nucleotides” value at PARP-10 is given as “reduced”. For the same compound, at Adenylate kinase 1 (AK1), the “competition” value is “to a lesser extent”. In addition, at AK1 [3], the “shift in AK1 thermal stabilization (ΔTm) compared to vehicle control” value is “caused a shift in AK1 thermal stabilization”.
On to `NC(=O)c1cc(F)cc2c1C(=O)N(C1CCN(C3CCC(F)(F)CC3)CC1)C2` [NMS-P118, 2-[1-(4,4-Difluorocyclohexyl)Piperidin-4-Yl]-6-Fluoro-3-Oxo-2,3-Dihydro-1H-Isoindole-4-Carboxamide], for which the “dose-dependent block of 2-ad-BAD labeling of PARP-1” value at PARP-1 [1] is “blocked the labeling of PARP-1”. The “dose-dependent block of 2-ad-BAD labeling of PARP-10” value at PARP-10 is reported as “did not block the labeling of PARP-10”.
In the case of `C#CCCC1(CCOC(=O)N2CCN(C(=O)c3cc(Cc4n[nH]c(=O)c5ccccc45)ccc3F)CC2)N=N1` [ad-olaparib, 2-(3-(but-3-yn-1-yl)-3H-diazirin-3-yl)ethyl 4-(2-fluoro-5-((4-oxo-3,4-dihydrophthalazin-1-yl)methyl)benzoyl) piperazine-1-carboxylate], at PARP-1 [4], the “UV-dependent labeling of PARP-1, dependence on damaged DNA” value is given as “labels PARP-1 independent of PARP-1 binding to damaged DNA”.
